This is an account of results in US8741871B2, “Trehalose compound, method for producing same, and pharmaceutical product containing the compound” (priority 2008, dated 2014).

Each structure is given as a SMILES string.

Assay [1] deals with THP-1 cells. Put plainly: Measurement of IL-8 released from THP-1 cells (ELISA). Format: cell-based, human. As to conditions: 50 μM test compound, two hours; FIG. 5. How it is done:
An RPMI medium solution was prepared in the same manner as described above. Using this medium solution, an RPMI medium solution of the test compound was prepared as follows.
1.0 mg of the test compound was dissolved in 25 μl of DMSO by an ultrasonic treatment for approximately 1 minute. The thus obtained 40 mM test compound stock solution was added to 100 μl of RPMI medium to a final concentration of 50 μM. […] In the case of preparing the vehicle used as a control, instead of the 40 mM test compound stock solution, only the solvent was added in the same amount as described above to the RPMI medium, and it was then treated with ultrasonic wave for 5 seconds.
THP-1 cells (purchased from Cell Bank, RIKEN BioResource Center) were added to an RPMI medium to a cell density of 1.0×10^6 cells/100 μl and 100 μl each of the obtained solution was dispensed into a sterile Eppendorf tube. 100 μl of the RPMI medium solution of the test compound as prepared above was treated with ultrasonic wave for 5 seconds, and the total amount of the solution was then added to the Eppendorf tube, into which the cells had been dispensed. Two hours later, the reacted Eppendorf tube was centrifuged at 5000 rpm for 5 minutes, and the amount of IL-8 released into the supernatant was then measured using ELISA kit (human IL-8 ELISA kit (R & D Systems (trademark)).

Assay [2] deals with Welch bacillus (Type A; NTCT8237). Format: in vivo. The method, then:
As test compounds, 1 mg each of the compound synthesized by the method described in Production Example α-1 and TDCM were weighed. Emulsion solutions of the test compounds (1 mg/ml) were prepared in the same manner as described above.
[…] of Brain Heart Infusion (BHI) (Difco) powders were dissolved in 200 ml of distilled water. 40 ml of the obtained solution (hereinafter this solution is referred to as a “BHI medium”) was withdrawn with a measuring pipette, and it was then added to a 200-ml flask, followed by performing a high-pressure steam sterilization (121° C., 20 minutes). In addition, 5 ml of the BHI medium was added to two screw-top test tubes, and they were then subjected to a high-pressure steam sterilization. Moreover, a glass tube-equipped rubber plug (with a cotton plug) and a glass tube were also subjected to a high-pressure steam sterilization. In a clean bench, an appropriate amount of bacteria for preservation, which had grown on a cooked meat medium, was collected with a sterilized Pasteur pipette, and it was then inoculated on the BHI medium in the aforementioned sterilized screw-top test tube. Subsequently, it was incubated at 37° C. overnight.
In a clean bench, bacteria that had grown in the screw-top test tube (wherein the inside of the […] in which bacteria had grown became clouded, and gas was generated) was transferred into a 200-ml Erlenmeyer flask, which contained 40 ml of BHI medium. A glass tube was inserted into the medium, so as to carry out nitrogen substitution for 10 minutes. Subsequently, the glass tube-equipped rubber plug (with a cotton plug) was equipped in the Erlenmeyer flask (since Welch bacillus generates gas, it is necessary to make an air vent), and incubation was then carried out at 37° C. for 4 to 5 hours. Thereafter, the cultured Welch bacillus was transferred into a centrifuge tube, it was then centrifuged (9000 rpm, 15 minutes), and the supernatant was then removed. 20 ml of sterilized normal saline solution was added to the precipitate, so that the bacteria were suspended therein. The suspension was centrifuged (9000 rpm, 15 minutes), and the supernatant was then removed.
Mice (ICR, 6-week-old) were divided into three groups, and the following test was then carried out.
An emulsion solution containing the test compound, an emulsion solution containing TDCM, or an emulsion solution alone, which was to be used as a control, was intraperitoneally administered in an amount of 100 μg/mouse to a group of four mice (100 μl/mouse, in the case of the emulsion solution alone). Three hours later, Welch bacillus (2.4×10^7 cells/mouse) was intraperitoneally administered to the mice. Thereafter, the condition of the mice was observed.

Assay [3] deals with THP-1 cells. Put plainly: Release of cytokine (MIP-1β, TNF-α) from THP-1 cells (ELISA). As to conditions: 100 μM test compound, 2 hours, FIG. 9; for release level of TNF-α from THP-1 cells compared with the negative control: negative control vehicle; for release level of MIP-1β from THP-1 cells compared with the positive control: positive controls control compound A and TDCM. Format: cell-based, human. In general terms: In an ELISA, binding on a coated surface is turned into a signal by an enzyme label.

The test system of another assay is Pseudomonas aeruginosa. The class given is in vivo. The settings on record: 100 μg/mouse i.p., twenty-four hours later infection; blood fifteen hours after bacteria; FIG. 19. How it is done:
Twenty-four hours later, the mice were infected with 3.0×10^10 CFU/mL Pseudomonas aeruginosa. Fifteen hours after administration of the bacteria, blood was collected from the heart using an injection with a needle tip containing a small amount of heparin, and 200 μL of whole blood was then inoculated on a common agar medium. Thereafter, it was incubated in an incubator for 16 hours. Subsequently, the number of colonies on the medium was counted.
When there were a large number of cells, whole blood was diluted with a normal saline solution by a factor of 10, 100, 1000 or 10000, and the thus diluted solution was inoculated on a common agar medium.

For the compound `CCCCCCCCCCC(CCCCCCCCCC)C(=O)OCC1O[C@H](O[C@H]2OC(COC(=O)C(CCCCCCCCCC)CCCCCCCCCC)[C@@H](O)C(O)C2O)C(O)C(O)[C@@H]1O` (stereo partly drawn) [Example 1, 6,6′-bis-O-(2-decyldodecanoyl)-α,α′-trehalose], the “IL-8 released from THP-1 cells, activity compared with TDCM” value in the assay on THP-1 cells [1] is “approximately 0.6 times”. Also, the “Number of surviving mice/number of treated mice, 2 hours later” value in assay [2] (100 μg/mouse i.p. three hours before Welch bacillus 2.4×10^7 cells/mouse i.p., 2 hours later) is 4/4. For the same compound, the “Number of surviving mice/number of treated mice, 6 hours later” value in assay [2] (100 μg/mouse i.p. three hours before Welch bacillus 2.4×10^7 cells/mouse i.p., 6 hours later) was 4/4. For the same compound, the “Number of surviving mice/number of treated mice, 12 hours later” value in assay [2] (100 μg/mouse i.p. three hours before Welch bacillus 2.4×10^7 cells/mouse i.p., 12 hours later) is recorded as 4/4. In assay [2] (100 μg/mouse i.p. three hours before Welch bacillus 2.4×10^7 cells/mouse i.p., 24 hours later), the “Number of surviving mice/number of treated mice, 24 hours later” value is 3/4. In addition, the “Number of surviving mice/number of treated mice, 48 hours later” value in assay [2] (100 μg/mouse i.p. three hours before Welch bacillus 2.4×10^7 cells/mouse i.p., 48 hours later) is 3/4. Moreover, the “mice that escaped death in Welch bacillus lethal models” value in assay [2] (100 μg/mouse i.p., text summary of Table 4) is given as “three out of the four mice”. Moreover, in the assay on THP-1 cells [3], the “release level of TNF-α from THP-1 cells compared with the negative control” value was “almost equivalent to” and the “release level of MIP-1β from THP-1 cells compared with the positive control” value is given as “higher than”.
Consider `CCCCCCCCCC(CCCCCCCCC)CC(=O)OCC1O[C@H](O[C@H]2OC(COC(=O)CC(CCCCCCCCC)CCCCCCCCC)[C@@H](O)C(O)C2O)C(O)C(O)[C@@H]1O` (stereo partly drawn) [Example 9, 6,6′-bis-O-(3-nonyldodecanoyl)-α,α′-trehalose], for which, in the assay with THP-1 cells [1], the “IL-8 released from THP-1 cells, activity compared with TDCM” value is reported as “approximately 0.8 times”. Moreover, in the assay with Pseudomonas aeruginosa, the “Pseudomonas aeruginosa cells in mouse blood (colonies)” value was “not detected”. Further, in the assay on THP-1 cells [3], the “release level of TNF-α from THP-1 cells compared with the negative control” value is “almost equivalent to” and the “release level of MIP-1β from THP-1 cells compared with the positive control” value lay within 8 to 10 times.
